This note sets out measurements from publication PMC10518717, “High-Throughput Screening and Proteomic Characterization of Compounds Targeting Myeloid-Derived Suppressor Cells” (Molecular & Cellular Proteomics : MCP, 2023).

Assay [1] has as its system NUP-MDSC cell lysate. The experiment in a line: Solvent-induced protein precipitation profiling, proteome-wide. The conditions noted are these: for log2 FC cmpd2_26uM/cmpd3_26uM: soluble fraction, 26 uM. The format is binding, mouse. As to the method: (§1) NUP-MDSCs were differentiated as described above, washed twice with PBS, resuspended in lysis buffer (PBS, 0.4% IGEPAL CA-630, 1× Halt Protease-Inhibitor Cocktail (Thermo Fisher Scientific)), and subjected to three freeze-thaw cycles. The lysate was cleared by centrifugation for 30 min at 18,000g and 4 °C. The soluble fraction was diluted to 4 mg/ml and allowed to warm up to room temperature. Equal volumes of lysate were treated in triplicates with 100 x compound stock solutions (in DMSO) or DMSO for 15 min at room temperature (final concentrations: cmpd 2: 7.8 μM (3xEC50) and 26 μM (10xEC50), cmpd 3: 10 μM and 26 μM). Similar to a previous study ([46]), each sample was divided into eight aliquots to be denatured using different concentrations (8%, 10%, 12%, 14%, 16%, 18%, 20%, 22%) of acetone:ethanol:acetic acid (50:50:0.1) in water for 20 min at 37 °C with vigorous shaking. Aggregated proteins were separated by centrifugation for 45 min at 4 °C and 3900g. Next, equal amounts of the soluble fraction were pooled for subsequent proteomic analysis.
(§2) Methanol was added to 100 μg of the pooled supernatants to a final concentration of 70% and further processed according to the R2P1 protocol ([47]), with tryptic digestion performed in 50 mM Hepes (pH 8.5). Elution fractions were combined and dried by vacuum centrifugation. Dried samples were resuspended in deionized water, and TMT labeling was performed according to Zecha et al. ([35]). All 15 samples (5 treatment conditions in triplicates) were labeled with one TMTpro plex. Next, equal amounts were pooled and desalted by C18 solid-phase extraction cartridges (Sep-Pak Vac 1 cc C18 Cartridges, Waters Corp). Desalted peptides were chromatographically separated via basic reversed phase chromatography as previously described ([36]) into 24 fractions, dried down, and stored at −20 °C until further analysis.
(§3) Peptides were analyzed via LC-MS/MS on a Vanquish Neo UHPLC coupled to an Orbitrap Eclipse Tribrid mass spectrometer (Thermo Fisher Scientific). […] The mass spectrometer was operated in data-dependent mode and positive ionization mode. Samples were measured, employing a MS3 method with real-time search. […] Iontrap-MS2 spectra for peptide identification were acquired using HCD fragmentation with 35% NCE, an isolation window of 0.7 m/z, an AGC target value of 5e4 charges, and a maxIT of 35 ms. To obtain quantitative information on TMT reporter ions, each peptide precursor was fragmented again as for MS2 analysis followed by synchronous selection of the up to 10 most intense peptide fragments in the iontrap ([37]) and further fragmentation via HCD using an NCE of 55%. For the MS3 scan, real-time search was enabled to only trigger a MS3 scan for peptides that are TMT-labeled and can be identified (searched against a mouse database, same as used for maxquant processing). The MS3 scan was recorded in the OT at 30,000 resolution (scan range 110–500 m/z, isolation window of 0.7 m/z, AGC of 2e4 charges, maxIT of 120 ms). The cycle time was set to 3 s, and the dynamic exclusion lasted for 60 s.
(§4) Raw files were searched with Maxquant (v. 2.0.3.0) against the mouse reference proteome (UP000000589, canonical, download 10/2019, 55,029 entries) with standard settings for reporter ion MS3 unless described otherwise ([39]). Isotope impurities of the TMT lot were specified to allow MaxQuant the automated correction of TMT intensities. […] Trypsin/P was specified as the proteolytic enzyme with up to two missed cleavage sites allowed. […]

Assay [2] deals with T1, NUP-MDSC cell lysate (Mus musculus, UniProt P59644).
T1 construct: endogenous in cells; host or cells: mouse NUP-MDSC (lysate)
T1 sequence (P59644 1-1003): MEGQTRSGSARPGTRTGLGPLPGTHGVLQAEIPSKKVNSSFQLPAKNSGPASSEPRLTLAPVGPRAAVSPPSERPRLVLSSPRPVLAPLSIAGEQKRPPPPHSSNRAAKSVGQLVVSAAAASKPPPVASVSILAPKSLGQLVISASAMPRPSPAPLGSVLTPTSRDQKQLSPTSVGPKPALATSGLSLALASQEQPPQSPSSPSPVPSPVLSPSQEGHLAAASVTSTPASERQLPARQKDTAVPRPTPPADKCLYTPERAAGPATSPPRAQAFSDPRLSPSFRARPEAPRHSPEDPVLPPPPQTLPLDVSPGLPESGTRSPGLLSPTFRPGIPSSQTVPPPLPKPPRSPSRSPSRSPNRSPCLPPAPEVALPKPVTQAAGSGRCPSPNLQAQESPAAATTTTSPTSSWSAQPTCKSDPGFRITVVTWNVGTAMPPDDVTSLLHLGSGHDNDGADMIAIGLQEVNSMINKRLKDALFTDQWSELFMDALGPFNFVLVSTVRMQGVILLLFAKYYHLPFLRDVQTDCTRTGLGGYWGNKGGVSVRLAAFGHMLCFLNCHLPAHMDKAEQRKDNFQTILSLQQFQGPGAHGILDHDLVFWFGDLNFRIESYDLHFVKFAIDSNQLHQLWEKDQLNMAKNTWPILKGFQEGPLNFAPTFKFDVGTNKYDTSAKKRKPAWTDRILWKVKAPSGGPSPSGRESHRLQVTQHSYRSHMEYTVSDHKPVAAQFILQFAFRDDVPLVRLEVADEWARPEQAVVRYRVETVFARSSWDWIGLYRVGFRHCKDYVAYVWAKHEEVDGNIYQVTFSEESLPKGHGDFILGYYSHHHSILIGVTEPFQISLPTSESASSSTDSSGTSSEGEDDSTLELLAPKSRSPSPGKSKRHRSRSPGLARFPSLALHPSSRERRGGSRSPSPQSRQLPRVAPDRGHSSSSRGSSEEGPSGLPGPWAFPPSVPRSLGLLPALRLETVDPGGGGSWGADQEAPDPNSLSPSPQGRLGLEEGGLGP
Described as above. Conditions: protein Inpp5j; soluble fraction; 26 uM. The format is binding. Here is the method: as §1, §2, §3, §4

Turning to `CCOC(=O)c1nnn(-c2nn3nnnc3c3ccccc23)c1C` [compound 2], the “stabilization of proteins against solvent-induced aggregation” value in assay [1] (7.8 μM and 26 μM, vs compound 3) is given as “significant stabilization of several proteins”. Further, the “log2 FC cmpd2_26uM/cmpd3_26uM” value was 0.25 in assay [1] (protein Magohb;Magoh), -0.12 in assay [1] (protein Srcap) and 0.07 in assay [2].
